Measured values reported in patent publication US12570684B2 (UNIVERSITY OF TENNESSEE RESEARCH FOUNDATION, priority 2020, dated 2026).
“Also recorded” adds a separate entry of the source.

Legend:
Snail [1] = test: Immunofluorescence assay using an anti-Snail antibody; type: cell-based
[2] = tested on: Myocobacterium tuberculosis H37Rv, Mycobacterium avium 2285, Mycobacterium smegmatis (ATCC607); test: Antimycobacterial activity (MIC); type: cell-based, Mycobacterium spp.; conditions: M. tuberculosis H37Rv, M. avium 2285, M. smegmatis (ATCC607)
PD002 [3] = test: Cell migration assay using Transwell (Boyden) chamber; type: cell-based; conditions: 0.1 μM, 18 h; compared to tunicamycin and gemcitabine at 0.1 μM
Method: Cell migration assays using Transwell chamber. Cell migration assay was performed using Boyden chamber (thermo fisher). PD002 cells (˜10^4 cells/mL) were seeded in 96-wells plate (Corning, HTS Transwell-96 Well Permeable Supports, pore size: 8 μm) in FBS free media and the lower chambers were filled with 10% FBS medium. CPPB, tunicamycin, or gemcitabine (0.1 μM) was added to the upper chamber. The cells were incubated for 18 h at 37° C. under 5% CO2. The cells were fixed using 4% paraformaldehyde for 0.5 h and stained with 0.05% crystal violet (300 μL/well), after 0.5 h, images were captured via 10× magnification microscopy.

PD002 [4] = test: Checkerboard synergy (FIC index) with paclitaxel; type: cell-based
Method: The synergistic or antagonistic activities of CPPB were assessed in vitro via checkerboard technique.

DLD-1 = test: MTT cytotoxicity assay; type: cell-based; conditions: 72 h
Method: (§1) Cell lines. The human primary PDAC cell lines PANC-1 (ATCC CRL 1469); Capan-2 (ATCC HTB-80) and metastatic PDAC cell lines Capan-1 (ATCC HTB-79), AsPC-1 (ATCC CRL-1682), L1210 (ATCC CCL-219), KB (ATCC CCL-17), HeLa, SiHa (ATCC HTB-35), HCT-116 (ATCC CCL-247), DLD-1 (ATCC CCL221), hTERT-HPNE (ATCC CRL-4023), Vero (ATCC CCL-81) were purchased from the ATCC. The cell lines were cultured and maintained in the media as recommended by the supplier. The cell lines were regularly tested for mycoplasma contamination and authenticated. In addition to ATCC cell lines, Dr. Glazer's lab generated patient-derived PDAC cell line, PD002. PD002 Cells were maintained and cultured in DMEM medium supplemented with 20% FBS and 100 IU/mL penicillin and incubated at 37° C. with 5% CO2.
(§2) MTT cytotoxicity assay. To study the effect of treatment with DPAGT1 inhibitors on the growth and proliferation of cells, a fixed number of cells (5×10^4 cells/well, 196 μL) were plated in a 96 well plate. Into each well 5 μL of drug concentration was added. After 72 h of incubation with drugs at 37° C., 5% CO2, 10 μL of MTT solution (5 mg/mL in PBS) was added and incubated another 3 h at 37° C., 5% CO2. The medium was removed, and DMSO (200 μL/well) was added. Viability was assessed on the basis of cellular conversion of MTT into a purple formazan product. The absorbance of the colored formazan product was measured at 570 nm by BioTek Synergy HT Spectrophotometer.

PD002 [5] = test: MTT cytotoxicity assay; type: cell-based
Method: as §1, §2

HCT-116 = test: MTT cytotoxicity assay; type: cell-based; conditions: 72 h
Method: as §1, §2

Vero = test: MTT cytotoxicity assay; type: cell-based
Method: as §1, §2

KB = test: MTT cytotoxicity assay; type: cell-based; conditions: 72 h
Method: as §1, §2

L1210 = test: MTT cytotoxicity assay; type: cell-based
Method: as §1, §2

SiHa = test: MTT cytotoxicity assay; type: cell-based; conditions: 72 h
Method: as §1, §2

HPNE = test: MTT cytotoxicity assay; type: cell-based
Method: as §1, §2

Snail [6] = test: Western blot of Snail in cervical cancer; type: cell-based; conditions: effective at 0.2 μM
cell lines in Table 2 = test: MTT assays, summary over the cell lines in Table 2; type: cell-based
Method: as §1, §2

[7] = tested on: pancreatic cancer cell lines (Capan-2, PANC-1, and AsPC-1); test: Scratch (wound healing) assay; type: cell-based, human; conditions: 0.05, 0.1, and 0.2 μM, 24 h
Method: Scratch Assay. A confluent monolayer was formed in 24-well plates. The monolayer was scratched by a sterile 200 μL pipette tip and washed with PBS to remove cell debris. Complete medium with CPPB (5) (0, 0.05, 0.1, 0.2 μM) were added and scratched areas were photographed with microscope. The scratched cells were incubated at 37° C., 5% CO2. After 24 h, medium was removed and cells were stained with a 1:1 mixture of crystal violet and PBS for 5 min., washed with PBS twice, and photographed with microscope. Wound areas were measured and recovered areas were calculated.

[8] = target: MraY (Hydrogenivirga sp.) (Hydrogenivirga sp. 128-5-R1-1, UniProt Z9Y2G8N0L0); test: MraY assay; type: biochemical
Chain of MraY (Hydrogenivirga sp.) (Z9Y2G8N0L0 7-365 limits assumed): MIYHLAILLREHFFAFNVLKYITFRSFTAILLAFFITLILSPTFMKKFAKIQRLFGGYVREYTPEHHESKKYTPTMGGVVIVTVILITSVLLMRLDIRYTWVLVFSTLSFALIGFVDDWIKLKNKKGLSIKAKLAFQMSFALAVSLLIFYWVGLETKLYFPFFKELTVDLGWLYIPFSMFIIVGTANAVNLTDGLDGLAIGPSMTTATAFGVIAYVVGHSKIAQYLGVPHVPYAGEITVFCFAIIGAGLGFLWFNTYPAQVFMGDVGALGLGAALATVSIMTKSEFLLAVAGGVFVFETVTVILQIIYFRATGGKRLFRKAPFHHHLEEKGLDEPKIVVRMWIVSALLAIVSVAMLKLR
Method: Expression and purification of HyMraY. The gene mraY of Hydrogenivirga spp. 128-5-R1-1 was cloned with a N-terminal His6 tag into a pET22b vector. […] The proteins were purified using a nickel, cation exchange, and size exclusion chromatography.
MraY assay. MraY assay substrates, Park's nucleotide-N^ε-C6-dansylthiourea, neryl phosphate, were chemically synthesized according to the reported procedures.^7 Park's nucleotide-N^ε-C6-dansylthiourea (2 mM stock solution, 1.88 jiL), MgCl2 (0.5 M, 5 jiL), KCl (2 M, 5 jiL), Triton X-100 (0.5%, 5.63 jiL), Tris buffer (pH 8.0, 50 mM), neryl phosphate (0.1 M, 2.25 jiL), and inhibitor molecule (0-50 .ig/mL in Tris buffer) were placed in a 1.5 mL Eppendorf tube. […] (26° C.) and quenched with CHCl3 (100 jiL). […] The aqueous phase was assayed via reverse-phase HPLC.

Substance: (2S,3S,4S)-2-((1R)-2-Amino-1-((2S,5R)-5-(2,4-dioxo-3,4-dihydropyrimidin-1(2H)-yl)-4-hydroxy-3-methoxytetrahydrofuran-2-yl)-2-oxoethoxy)-3,4-dihydroxy-N-(4-(4-(4-(trifluoromethoxy)-phenyl)piperidin-1-yl)benzyl)-3,4-dihydro-2H-pyran-6-carboxamide [CPPB]
- Snail expression in pancreatic cancer cells (Snail [1]; PANC-1, AsPC-1, Capan-2, PD002): decreased by the treatment with CPPB in a concentration dependent manner; also recorded: decreased the Snail expression
- Snail expression level in HCT-116 (Snail [1]; between 0.05 and 2.0 μM): not noticeably changed
- MIC [2]: 6.25 to 12.5 µg/mL
- cell migration of PD002 via transwell chamber (PD002 [3]): inhibited on a higher level
- synergistic effect with paclitaxel (PD002 [4]; PD002): strong synergistic effect
- IC50 (PD002 [4]; alone, read-out: IC50 of the single agent against PD002): 35 µM
- ΣFIC (PD002 [4]; entry 1, CPPB 0.10 μM + paclitaxel 0.63 μM): 0.50
- IC50 (PD002 [4]; entry 1, with paclitaxel 0.63 μM, read-out: IC50 CA (CPPB in combination)): 0.1 µM
- ΣFIC (PD002 [4]; entry 2, CPPB 0.10 μM + paclitaxel […]): 0.13
- IC50 (PD002 [4]; entry 2, with paclitaxel […], read-out: IC50 CA (CPPB in combination)): 0.1 µM
- ΣFIC (PD002 [4]; entry 3, CPPB 0.20 μM + paclitaxel 0.0049 μM): 0.0096
- IC50 (PD002 [4]; entry 3, with paclitaxel 0.0049 μM, read-out: IC50 CA (CPPB in combination)): 0.2 µM
- ΣFIC (PD002 [4]; entry 4, CPPB 0.20 μM + paclitaxel 0.020 μM): 0.021
- IC50 (PD002 [4]; entry 4, with paclitaxel 0.020 μM, read-out: IC50 CA (CPPB in combination)): 0.2 µM
- ΣFIC (PD002 [4]; entry 5, CPPB 0.20 μM + paclitaxel 0.031 μM): 0.26
- IC50 (PD002 [4]; entry 5, with paclitaxel 0.031 μM, read-out: IC50 CA (CPPB in combination)): 0.2 µM
- ΣFIC (PD002 [4]; entry 6, CPPB 2.0 μM + paclitaxel 0.020 μM): 0.021
- IC50 (PD002 [4]; entry 6, with paclitaxel 0.020 μM, read-out: IC50 CA (CPPB in combination)): 2 µM
- ΣFIC (PD002 [4]; entry 7, CPPB 2.0 μM + paclitaxel 0.039 μM): 0.037
- IC50 (PD002 [4]; entry 7, with paclitaxel 0.039 μM, read-out: IC50 CA (CPPB in combination)): 2 µM
- ΣFIC (PD002 [4]; entry 8, CPPB 2.0 μM + paclitaxel 0.31 μM): 0.26
- IC50 (PD002 [4]; entry 8, with paclitaxel 0.31 μM, read-out: IC50 CA (CPPB in combination)): 2 µM
- IC50 (DLD-1): 25 µM
- cell viability of PD002 (MTT reduction assay) (PD002 [5]; 50 μM): significantly decreased
- IC50 (PD002 [5]; MTT, 72 h): 35 µM
- IC50 (HCT-116): 15 µM
- IC50 (Vero; MTT, 72 h): > 50 µM
- antiproliferative activity against Vero (Vero; at 50 μM, normal kidney cell): did not show antiproliferative activity
- IC50 (KB): 35 µM
- IC50 (L1210; MTT, 72 h): > 50 µM
- antiproliferative activity against L1210 (L1210; at 50 μM): did not show antiproliferative activity
- IC50 (SiHa): 15 µM
- IC50 (HPNE; MTT, 72 h): > 50 µM
- antiproliferative activity against HPNE (HPNE; at 50 μM, normal pancreatic ductal cell): did not show antiproliferative activity
- Snail expression in SiHa (Snail [6]): inhibited by treatment of CPPB in a concentration dependent manner
- viability of all pancreatic cancers tested (MTT) (cell lines in Table 2; 20 μM concentration): remained viable
- cytotoxicity against a series of cancer and healthy cell lines (cell lines in Table 2; at 10 μM or higher concentrations): not cytotoxic
- migration of pancreatic cancer cell lines vs PBS control [7]: migrated far less
- IC50 [8]: 10.3 µM
